Measurements published in patent publication US20210198277A1, “AMINE-SUBSTITUTED ARYL OR HETEROARYL COMPOUNDS” (Epizyme, Inc., priority 2016, published 2021).

Legend:
[1] = molecular target: T1, human EHMT2 913-1193 (Homo sapiens, UniProt Q96KQ7); assay: EHMT2 enzyme assay on histone peptide substrate (EHMT2 PEP); assay type: biochemical; details: Table III; read-out: EHMT2 PEP (IC50 μM)
T1 construct: recombinant purified human EHMT2 913-1193, Viva; purchased Viva
T1 sequence (Q96KQ7 913-1193): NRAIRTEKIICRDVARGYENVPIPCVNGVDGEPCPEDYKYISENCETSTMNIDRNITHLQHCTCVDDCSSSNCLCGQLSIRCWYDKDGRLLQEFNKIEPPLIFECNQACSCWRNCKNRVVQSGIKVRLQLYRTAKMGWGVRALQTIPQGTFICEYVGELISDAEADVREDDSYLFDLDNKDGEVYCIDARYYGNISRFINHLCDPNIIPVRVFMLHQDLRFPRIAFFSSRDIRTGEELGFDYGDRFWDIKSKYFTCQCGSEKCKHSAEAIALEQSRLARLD
In short: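 10-pt 3-fold series, 50 μM top final, 2% DMSO; 30 min preinc w/ 0.031 nM enzyme; pH 7.5 Bicine/TCEP buffer; ^3H-SAM + biotin-histone peptide, 60 min RT; SAM quench; streptavidin Flashplate capture, TopCount.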

[2] = molecular target: T2, EHMT1 (Homo sapiens, UniProt Q9H9B1); assay: EHMT1 enzyme assay on peptide substrate (EHMT1 PEP); assay type: biochemical; details: Table III; read-out: EHMT1 PEP (IC50 μM)
T2 sequence (Q9H9B1 1-1298): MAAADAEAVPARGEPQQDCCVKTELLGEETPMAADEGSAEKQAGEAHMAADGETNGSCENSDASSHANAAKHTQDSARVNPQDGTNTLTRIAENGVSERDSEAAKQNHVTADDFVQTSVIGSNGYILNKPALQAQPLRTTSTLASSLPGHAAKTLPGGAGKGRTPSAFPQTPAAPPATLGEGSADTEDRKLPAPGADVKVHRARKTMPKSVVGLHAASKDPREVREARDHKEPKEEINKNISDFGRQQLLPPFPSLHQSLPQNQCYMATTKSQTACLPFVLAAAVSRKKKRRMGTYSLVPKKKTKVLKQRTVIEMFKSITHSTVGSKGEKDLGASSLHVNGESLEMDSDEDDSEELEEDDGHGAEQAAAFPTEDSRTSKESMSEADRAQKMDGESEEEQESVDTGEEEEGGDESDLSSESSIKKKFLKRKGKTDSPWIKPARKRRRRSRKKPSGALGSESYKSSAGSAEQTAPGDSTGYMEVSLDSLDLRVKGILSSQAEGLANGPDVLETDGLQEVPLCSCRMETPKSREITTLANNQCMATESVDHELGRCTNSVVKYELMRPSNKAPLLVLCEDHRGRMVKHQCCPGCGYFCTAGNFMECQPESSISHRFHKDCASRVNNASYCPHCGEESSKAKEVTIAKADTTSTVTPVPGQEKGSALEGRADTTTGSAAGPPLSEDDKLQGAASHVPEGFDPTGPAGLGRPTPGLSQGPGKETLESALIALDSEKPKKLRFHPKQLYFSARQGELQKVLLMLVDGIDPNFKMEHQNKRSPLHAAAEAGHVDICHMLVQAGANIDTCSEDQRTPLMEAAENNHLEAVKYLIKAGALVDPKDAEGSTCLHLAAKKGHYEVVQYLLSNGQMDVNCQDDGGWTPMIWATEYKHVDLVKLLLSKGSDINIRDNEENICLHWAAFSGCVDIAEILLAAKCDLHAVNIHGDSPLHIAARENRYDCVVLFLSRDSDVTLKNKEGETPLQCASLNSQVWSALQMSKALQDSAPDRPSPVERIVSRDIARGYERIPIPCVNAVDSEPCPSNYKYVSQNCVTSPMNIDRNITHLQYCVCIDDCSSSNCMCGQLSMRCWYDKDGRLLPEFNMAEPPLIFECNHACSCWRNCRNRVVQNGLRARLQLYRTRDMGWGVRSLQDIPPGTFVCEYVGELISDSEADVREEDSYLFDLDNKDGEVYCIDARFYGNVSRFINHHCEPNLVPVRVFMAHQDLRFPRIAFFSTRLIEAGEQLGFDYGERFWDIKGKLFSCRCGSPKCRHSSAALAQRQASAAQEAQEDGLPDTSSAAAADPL

Row | Structure (SMILES) | IC50 [1] | IC50 [2]
1 | CNc1cc(C)nc(Nc2cc(F)c(OC)c(OCCCN3CCCC3)c2)n1 [Compound 301, N2-(3-fluoro-4-methoxy-5-(3-(pyrrolidin-1-yl)propoxy)phenyl)-N4,6-dimethylpyrimidine-2,4-diamine] | > 10 µM | > 10 µM
2 | CNc1cc(C)nc(Nc2cc(OCCCN3CCCC3)c(OC)cc2F)n1 [Compound 302, N^2-(2-fluoro-4-methoxy-5-(3-(pyrrolidin-1-yl)propoxy)phenyl)-N^4,6-dimethylpyrimidine-2,4-diamine] | 1 to 10 µM | 1 to 10 µM
3 | CNc1cc(C)nc(Nc2cc(OCCCN3CCCC3)c(OC)cn2)n1 [Compound 303, N^2-(5-methoxy-4-(3-(pyrrolidin-1-yl)propoxy)pyridin-2-yl)-N^4,6-dimethylpyrimidine-2,4-diamine] | < 0.1 µM | 0.1 to 1 µM
4 | COc1cnc(Nc2nccc3[nH]ccc23)cc1OCCCN1CCCC1 [Compound 304] | < 0.1 µM | < 0.1 µM
5 | CNc1ccnc(Nc2cc(OCCCN3CCCC3)c(OC)cn2)c1 [Compound 305, N^2-(5-methoxy-4-(3-(pyrrolidin-1-yl)propoxy)pyridin-2-yl)-N^4-methylpyridine-2,4-diamine] | < 0.1 µM | < 0.1 µM
6 | CNc1nc(C)cc(Nc2cc(OCCCN3CCCC3)c(OC)cn2)n1 [Compound 306, N^4-(5-methoxy-4-(3-(pyrrolidin-1-yl)propoxy)pyridin-2-yl)-N^2,6-dimethylpyrimidine-2,4-diamine] | 1 to 10 µM | > 10 µM
7 | CNc1cc(C)nc(Nc2cc(OCCCN3CCCC3)c(OC)cn2)c1 [Compound 307, N^2-(5-methoxy-4-(3-(pyrrolidin-1-yl)propoxy)pyridin-2-yl)-N^4,6-dimethylpyridine-2,4-diamine] | < 0.1 µM | < 0.1 µM
8 | CNc1cc(Nc2cc(OCCCN3CCCC3)c(OC)cn2)cc(C)n1 [Compound 308, N^4-(5-methoxy-4-(3-(pyrrolidin-1-yl)propoxy)pyridin-2-yl)-N^2,6-dimethylpyridine-2,4-diamine] | 0.1 to 1 µM | 0.1 to 1 µM
9 | CNc1cc(Nc2cc(OCCCN3CCCC3)c(OC)cn2)nc(C)c1F [Compound 309, 5-fluoro-N^2-(5-methoxy-4-(3-(pyrrolidin-1-yl)propoxy)pyridin-2-yl)-N^4,6-dimethylpyridine-2,4-diamine] | < 0.1 µM | < 0.1 µM
10 | COc1cnc(Nc2nc(C)cc3[nH]ccc23)cc1OCCCN1CCCC1 [Compound 310] | 0.1 to 1 µM | 0.1 to 1 µM
11 | CNc1cc(C)nc(Nc2ccc(OC)c(OCCOC)c2)n1 [Compound 311, N^2-(4-methoxy-3-(2-methoxyethoxy)phenyl)-N^4,6-dimethylpyrimidine-2,4-diamine] | > 10 µM | > 10 µM
12 | CNc1cc(C)nc(Nc2ccc(OC)c(OCCCOC)c2)n1 [Compound 312, N^2-(4-methoxy-3-(3-methoxypropoxy)phenyl)-N^4,6-dimethylpyrimidine-2,4-diamine] | > 10 µM | > 10 µM
13 | CNc1cc(C)nc(Nc2ccc(C3CC3)c(OCCCN3CCCC3)c2)n1 [Compound 313, N^2-(4-cyclopropyl-3-(3-(pyrrolidin-1-yl)propoxy)phenyl)-N^4,6-dimethylpyrimidine-2,4-diamine] | 0.1 to 1 µM | 0.1 to 1 µM
14 | CNc1ccnc(Nc2ccc(C3CC3)c(OCCCN3CCCC3)c2)n1 [Compound 314, N^2-(4-cyclopropyl-3-(3-(pyrrolidin-1-yl)propoxy)phenyl)-N^4-methylpyrimidine-2,4-diamine] | 0.1 to 1 µM | 0.1 to 1 µM
15 | CNc1cc(C)nc(Nc2ccc(OC)c(OC[C@H]3C[C@@H](N(C)C)C3)c2)n1 [Compound 316] | 1 to 10 µM | 0.1 to 1 µM
16 | CNc1cc(C)nc(Nc2ccc(OC)c(O[C@H]3C[C@@H](CN(C)C)C3)c2)n1 [Compound 318, N^2-(3-((1s,3s)-3-((dimethylamino)methyl)cyclobutoxy)-4-methoxyphenyl)-N^4,6-dimethylpyrimidine-2,4-diamine] | > 10 µM | > 10 µM
17 | CCc1nc(Nc2ccc(OC)c(OCCCN3CCCC3)c2)nc(NC)c1F [Compound 319, 6-ethyl-5-fluoro-N^2-(4-methoxy-3-(3-(pyrrolidin-1-yl)propoxy)phenyl)-N^4-methylpyrimidine-2,4-diamine] | 0.1 to 1 µM | 0.1 to 1 µM
18 | CNc1cc(C2CC2)nc(Nc2ccc(OC)c(OCCCN3CCCC3)c2)n1 [Compound 320, 6-cyclopropyl-N^2-(4-methoxy-3-(3-(pyrrolidin-1-yl)propoxy)phenyl)-N^4-methylpyrimidine-2,4-diamine] | < 0.1 µM | < 0.1 µM
19 | COc1cnc(Nc2cnc3ccccn23)cc1OCCCN1CCCC1 [Compound 321, N-(5-methoxy-4-(3-(pyrrolidin-1-yl)propoxy)pyridin-2-yl)imidazo[1,2-a]pyridin-3-amine] | 1 to 10 µM | 1 to 10 µM
20 | CNc1ccnc(Nc2ccc(OC)c(OCCCN3CC(C)C3)c2)n1 [Compound 423, N^2-(4-methoxy-3-(3-(3-methylazetidin-1-yl)propoxy)phenyl)-N^4-methylpyrimidine-2,4-diamine] | 0.1 to 1 µM | 0.1 to 1 µM
21 | CNc1ccnc(Nc2ccc(OC)c(OCCCN(C)CC3CC3)c2)n1 [Compound 424, N^2-(3-(3-((cyclopropylmethyl)(methyl)amino)propoxy)-4-methoxyphenyl)-N^4-methylpyrimidine-2,4-diamine] | 1 to 10 µM | 1 to 10 µM
22 | CNc1ccnc(Nc2ccc(OC)c(OCCCN3CC(OC)C3)c2)n1 [Compound 425, N^2-(4-methoxy-3-(3-(3-methoxyazetidin-1-yl)propoxy)phenyl)-N^4-methylpyrimidine-2,4-diamine] | 0.1 to 1 µM | 0.1 to 1 µM
23 | CNc1ccnc(Nc2ccc(OC)c(OCc3cc(C4CC4)on3)c2)n1 [Compound 426, N^2-(3-((5-cyclopropylisoxazol-3-yl)methoxy)-4-methoxyphenyl)-N^4-methylpyrimidine-2,4-diamine] | > 10 µM | > 10 µM
24 | CNc1ccnc(N[C@@H]2CCC[C@H](OCCCN3CCCC3)C2)n1 [Compound 427] | > 10 µM | > 10 µM
25 | CNc1cc(CC(F)(F)F)nc(Nc2ccc(OC)c(OCCCN3CCCC3)c2)n1 [Compound 428, N^2-(4-methoxy-3-(3-(pyrrolidin-1-yl)propoxy)phenyl)-N^4-methyl-6-(2,2,2-trifluoroethyl)pyrimidine-2,4-diamine] | 1 to 10 µM | 1 to 10 µM
26 | CNc1ccnc(Nc2ccc(OC)c(OCCCN3CCC3C)c2)n1 (stereo not shown) [Compound 429, N^2-(4-methoxy-3-(3-(2-methylazetidin-1-yl)propoxy)phenyl)-N^4-methylpyrimidine-2,4-diamine] | 0.1 to 1 µM | 0.1 to 1 µM
27 | CCOc1ccc(Nc2nccc(NC)n2)cc1OCCCN1CCCC1 [Compound 430, N^2-(4-ethoxy-3-(3-(pyrrolidin-1-yl)propoxy)phenyl)-N^4-methylpyrimidine-2,4-diamine] | > 10 µM | > 10 µM
28 | CCOc1ccc(Nc2nccc(NC)n2)cc1OCC1CCN(C)C1 (stereo not shown) [Compound 431] | > 10 µM | > 10 µM
29 | CCOc1ccc(Nc2nc(C)cc(NC)n2)cc1OCCCN1CCCC1 [Compound 432, N^2-(4-ethoxy-3-(3-(pyrrolidin-1-yl)propoxy)phenyl)-N^4,6-dimethylpyrimidine-2,4-diamine] | > 10 µM | > 10 µM
